Results reported in PMC12799407, “Differential RELA and GR recruitment to the BIRC3/BIRC2 locus: Molecular insight as to combinatorial regulation by proinflammatory cytokines and glucocorticoid” (Molecular Pharmacology, 2025).
Values joined by “and” are separate entries in the source; they are usually repeats but may differ in a detail not shown here. Identical values can stand only once. Like-named read-outs stand apart in the source and are kept apart here.

Tests used:
[1] = system: R8 reporter; assay: R8 luciferase reporter stably transfected in A549 cells; conditions: for EC50 / inhibition at 30 µM: Homo sapiens; for EC50: A549, read-out: pEC50, R8 reporter (converted), Schild experiments (Fig. 7D); for inhibition at 30 µM: A549, read-out: inhibition of IL-1β-plus-dexamethasone-induced R8 reporter activity
Description: (§2) Data were assumed to be normally distributed and, unless otherwise indicated, are presented as means ± SD with scatterplots showing individual values. With the exception of pEC50 values, numerical values in tables and text are provided to one decimal place, or where appropriate 2 significant figures of accuracy. […] Multiple comparisons were made using one-way ANOVA with Tukey’s or Dunnett’s post hoc tests, as appropriate. Comparisons between 2 groups were performed by 2-tailed, paired Student’s t test. The number of independent experiments (N) is indicated in each graph and, being exploratory, sample sizes were not prespecified. […] GraphPad Prism software (version 11; Dotmatics) and/or the R package “ggplot2” was used for graph plotting and statistical analyses. Heat maps were generated using the R package “pheatmap.” Concentration-response relationships were fitted using the 4-parameter model that assumed symmetric variance or using the Gaddum-Schild model of competitive antagonism, as described previously.[43] Variance in pEC50, EMax, or pA2 are provided by Prism as mean ±SE, whereas all curves are plotted as means ±SD (but without scatterplots).

[2] = system: GR recruitment to FKBP5; assay: ChIP-qPCR of GR recruitment to FKBP5 in A549 cells; format: cell-based, human; conditions: budesonide 300 nM, 1 hour
Description: (§3) After cell treatments, formaldehyde (PI28906, Thermo Fisher Scientific) was added to a final concentration of 1% for 10 minutes. […] Following cytoplasmic and then nuclear lysis, lysates were sonicated with 30 high-power bursts in a 30 seconds on-off cycle at 4 °C using a Bioruptor (Diagenode). Antibodies: GR, GR-356,[36] RELA (NF-κB p65, D14E12, #8242, Cell Signaling Technologies); RNA polymerase 2 (RNAP2) (Rpb1 NTD D8L4Y, #14958, Cell Signaling Technologies) used for ChIP were preincubated with protein G magnetic Dynabeads (10004D, Thermo Fisher Scientific) overnight at 4 °C and beads were washed as previously described. Nuclear lysates were then incubated with the antibody-coated beads overnight prior to extensive washing. Following reversal of crosslinks, DNA was purified with a ChIP DNA Clean & Concentrator kit (D5205, Zymo Research). Fast SYBR Green Master Mix (Thermo Fisher Scientific) was used in standard quantitative polymerase chain reaction (qPCR) reactions to detect DNA regions of interest. […] Relative occupancy at each region was calculated as ΔΔ threshold cycle (CT) after normalization to the geometric mean of the threshold cycle values for 3 negative control regions (Gene symbols: OLIG3, MYOD1, and MYOG).

[3] = system: R2 reporter; assay: R2 luciferase reporter (BIRC3/BIRC2 locus) stably transfected in A549 cells; format: cell-based, human; conditions: for EC50: A549, 6 h; for pA2 (Schild analysis): Org34517 1 μM
Description: Data were assumed to be normally distributed and, unless otherwise indicated, are presented as means ± SD with scatterplots showing individual values. […] Multiple comparisons were made using one-way ANOVA with Tukey’s or Dunnett’s post hoc tests, as appropriate. Comparisons between 2 groups were performed by 2-tailed, paired Student’s t test. The number of independent experiments (N) is indicated in each graph and, being exploratory, sample sizes were not prespecified. […] Heat maps were generated using the R package “pheatmap.” Concentration-response relationships were fitted using the 4-parameter model that assumed symmetric variance or using the Gaddum-Schild model of competitive antagonism, as described previously.[43] Variance in pEC50, EMax, or pA2 are provided by Prism as mean ±SE, whereas all curves are plotted as means ±SD (but without scatterplots). Because all analyses were exploratory and were not designed to test prespecified statistical null hypotheses, stated P values should be viewed as being descriptive rather than as hypothesis testing.

[4] = system: R5 reporter; assay: R5 luciferase reporter stably transfected in A549 cells; format: cell-based, human; conditions: for EC50: Homo sapiens
Description: as §2

[5] = system: BIRC3 mRNA; assay: qPCR of BIRC3 mRNA in A549 cells; format: cell-based, human; conditions: for EC50: Homo sapiens, A549, 2 h, IL-1β-induced BIRC3 mRNA, 2 h; for repression of IL-1β-induced BIRC3 mRNA: at 30 μM, IL-1β 2 h
Description: (§1) Following treatments, total RNA was extracted and 500 ng used for cDNA synthesis according to standard procedures.[34] After 1:5 dilution, cDNA (2.5 μL) was analyzed by qPCR (StepOnePlus, Applied […] or QuantStudio3, Thermo Fisher Scientific) with Fast SYBR Green Master Mix (4385618, Thermo Fisher Scientific). Amplification conditions and primers specific for BIRC3, BIRC2, and glyceraldehyde-3-phosphate dehydrogenase mRNAs were as described.[9] In each case, relative cDNA concentrations were obtained from standard curves generated by serial dilution of a stimulated cDNA sample that was analyzed in parallel with the experimental samples. Primer specificity was assessed by melt curve analysis where a single peak in the change of fluorescence with temperature was taken to indicate specificity.

[6] = system: NF-κB reporter; set-up: method as in PMID 17322026, PMID 37863662, PMID 38941070; conditions: read-out: EC50, inhibition of IL-1β-induced NF-κB reporter activity; cited from earlier work
[7] = system: BIRC2 mRNA; assay: qPCR of BIRC2 mRNA in A549 cells; format: cell-based, human; conditions: for effect on IL-1β-induced BIRC2 mRNA expression: concentration series, IL-1β 2 h (Fig. 6C)
Description: as §1

[8] = system: R8 reporter
Description: as §2

[9] = system: R4 reporter; assay: R4 luciferase reporter stably transfected in A549 cells; format: cell-based, human; conditions: for EC50: Homo sapiens, A549, read-out: EC50, inhibition of IL-1β-induced R4 reporter activity
Description: as §2

[10] = system: RELA recruitment to CXCL8; assay: ChIP-qPCR of RELA recruitment to CXCL8 in A549 cells; format: cell-based, human; conditions: IL-1β 1 ng/mL, 1 hour
Description: as §3

[11] = system: R0 reporter; assay: R0 luciferase reporter stably transfected in A549 cells; format: cell-based, human; conditions: IL-1β 1 ng/mL, 6 h (Fig. 3B,C)
Description: as §2

[12] = system: R3 reporter; assay: R3 luciferase reporter stably transfected in A549 cells; format: cell-based, human; conditions: IL-1β 1 ng/mL, 6 h (Fig. 3B,C)
Description: Data were assumed to be normally distributed and, unless otherwise indicated, are presented as means ± SD with scatterplots showing individual values. […] Multiple comparisons were made using one-way ANOVA with Tukey’s or Dunnett’s post hoc tests, as appropriate. Comparisons between 2 groups were performed by 2-tailed, paired Student’s t test. The number of independent experiments (N) is indicated in each graph and, being exploratory, sample sizes were not prespecified. […] GraphPad Prism software (version 11; Dotmatics) and/or the R package “ggplot2” was used for graph plotting and statistical analyses. Heat maps were generated using the R package “pheatmap.” Concentration-response relationships were fitted using the 4-parameter model that assumed symmetric variance or using the Gaddum-Schild model of competitive antagonism, as described previously.[43] Variance in pEC50, EMax, or pA2 are provided by Prism as mean ±SE, whereas all curves are plotted as means ±SD (but without scatterplots).

[13] = system: R7 reporter; assay: R7 luciferase reporter stably transfected in A549 cells; format: cell-based, human
Description: as §2

[14] = Homo sapiens, R2 reporter, glucocorticoid + IL-1β (1 ng/mL), 6 h
[15] = Homo sapiens, R2 reporter, glucocorticoid, naïve, 6 h
[16] = A549, 6 h, R5 reporter, glucocorticoid + IL-1β (1 ng/mL), 6 h
[17] = A549, 6 h, R5 reporter, glucocorticoid, naïve, 6 h
[18] = R5 reporter, glucocorticoid + IL-1β (1 ng/mL), % of 1 μM dexamethasone, 6 h
[19] = R5 reporter, glucocorticoid, naïve, expressed as % of 1 μM dexamethasone, 6 h
[20] = R8 reporter, IL-1β, naïve (Table 1), n.r. = no significant response
[21] = R8 reporter, IL-1β, naïve, budesonide series (Supplemental Table 1), n.r. = no significant response
[22] = R5 reporter, IL-1β, naïve, n.r. = no significant response

CCCC1O[C@@H]2C[C@H]3[C@@H]4CCC5=CC(=O)C=C[C@]5(C)[C@H]4[C@@H](O)C[C@]3(C)[C@]2(C(=O)CO)O1 (some centres unmarked) [Budesonide, budesonide]
EMax (Fold ± SE) ([1]; R8 reporter, glucocorticoid + IL-1β (1 ng/mL), 6 h): 16.2 Fold | EMax (Fold ± SE) ([1]; R8 reporter, glucocorticoid, naïve, 6 h): 2.2 Fold | recruitment of GR to FKBP5, fold [2]: 240 ± 150 fold | EC50 [3, 14]: 5.89 nM | EC50 [3, 15]: 3.47 nM | EMax (Fold ± SE) ([3]; R2 reporter, glucocorticoid + IL-1β (1 ng/mL), 6 h): 3.3 Fold | EMax (Fold ± SE) ([3]; R2 reporter, glucocorticoid concentration-response, naïve, 6 h): 2.4 Fold | EC50 [4, 16]: 12.3 nM | EC50 [4, 17]: 6.61 nM | EMax (% of 1 μM dexamethasone ± SE) [4, 18]: 9.3% | EMax (% of 1 μM dexamethasone ± SE) [4, 19]: 92.2%

C[C@@H]1C[C@H]2[C@@H]3CCC4=CC(=O)C=C[C@]4(C)[C@@]3(F)[C@@H](O)C[C@]2(C)[C@@]1(O)C(=O)CO [Dexamethasone, dexamethasone]
EC50 ([1]; dexamethasone alone): 10.7 nM | EC50 ([1]; dexamethasone in the presence of IL-1β): 8.32 nM | EC50 [3, 14]: 10.2 nM | EC50 [3, 15]: 8.51 nM | EC50 [4, 16]: 10 nM | EC50 [4, 17]: 11.5 nM | EC50 ([4]; A549, R5 reporter, dexamethasone, Schild experiments (Fig. 7C), read-out: pEC50 (converted)): 11.7 nM | EMax (% of 1 μM dexamethasone ± SE) [4, 18]: 16.3% ± 1.8 | EMax (% of 1 μM dexamethasone ± SE) [4, 19]: 101% ± 2

COc1c(Cl)cc2c([nH]c3cnccc32)c1NC(=O)c1cccnc1C.Cl.Cl [ML120B, N-(6-Chloro-7-methoxy-9H-pyrido[3,4-b]indol-8-yl)-2-methyl-3-pyridinecarboxamide dihydrochloride]
EC50 [5]: 2950 nM | repression of IL-1β-induced BIRC3 mRNA [5]: ~54% | inhibition at 30 µM [1]: > 75% | EC50 [6]: 8200 nM | reduction in reporter activity in the presence of IL-1β [3]: 27.8% | reduction in reporter activity induced by dexamethasone [3]: 34.0% | EC50 ([7]; Homo sapiens, A549, 2 h): 10500 nM | effect on IL-1β-induced BIRC2 mRNA expression [7]: partial repressive effect | EC50 [8]: 10000 nM | EC50 [9]: ≥ 30000 nM

CC#C[C@]1(O)CCC2C3CCC4=CC(=O)CCC4=C3[C@@H](c3ccc4c(c3)OCO4)C[C@@]21C (some centres unmarked) [Org34517]
IL-1β-plus-dexamethasone-induced reporter activity in the presence of Org34517, fold ([1]; R8 reporter, Org34517 1 μM): 6.3 fold | dexamethasone-induced reporter activity in the presence of Org34517, fold ([1]; R8 reporter, Org34517 1 μM, dexamethasone 1 μM): 1.4 fold | pA2 (Schild analysis) ([1]; R8 reporter, antagonism of dexamethasone + IL-1β, Org34517 1 μM): 8.14 ± 0.11 | pA2 (Schild analysis) ([1]; R8 reporter, antagonism of dexamethasone, Org34517 1 μM): 8.14 ± 0.11 | pA2 (Schild analysis) ([3]; R2 reporter, antagonism of dexamethasone + IL-1β): 7.99 | pA2 (Schild analysis) ([3]; R2 reporter, antagonism of dexamethasone, consistent with antagonism at GR): 7.71 | dexamethasone-induced luciferase activity in the presence of Org34517, fold ([4]; R5 reporter, Org34517 1 μM, dexamethasone 1 μM): 1.7 fold | pA2 (Schild analysis) ([4]; R5 reporter, antagonism of dexamethasone, Org34517 1 μM): 8.33 ±0.14 | effect on induced R4 reporter activity ([9]; Org34517 1 μM, P ≤ .05 and .01): reduced

O=C(Nc1cc(Cl)cc2c1[nH]c1cnccc12)c1cccnc1 [PS-1145, N-(6-chloro-9h-pyrido[3,4-b]indol-8-yl)-3-pyridinecarboxamide]
EC50 [5]: 2750 nM | repression of IL-1β-induced BIRC3 mRNA [5]: ~54% | inhibition at 30 µM [1]: > 60% | EC50 [6]: 1000 to 2000 nM | inhibition of IL-1β-plus-dexamethasone-induced reporter activity ([3]; R2 reporter, inhibitor 30 μM (Fig. 6A)): unaffected | reduction in reporter activity induced by dexamethasone ([3]; R2 reporter, inhibitor 30 μM, dexamethasone 1 μM (Fig. 6A)): unaffected | effect on IL-1β-induced BIRC2 mRNA expression [7]: no effect on IL-1β-induced expression until a concentration of 100 μM | reduction of dexamethasone-induced R4 reporter activity ([9]; inhibitor 30 μM, dexamethasone 1 μM): 24.5%

NC(=O)Nc1sc(-c2ccc(F)cc2)cc1C(N)=O [TPCA-1, 2-[(aminocarbonyl)amino]-5-(4-fluorophenyl)-3-thiophenecarboxamide]
repression of IL-1β-induced BIRC3 mRNA [5]: near complete inhibition | inhibition of IL-1β-plus-dexamethasone-induced R8 reporter activity ([1]; inhibitor 30 μM): complete inhibition | EC50 [6]: 2000 nM | inhibition at 30 µM ([3]; Homo sapiens, A549, read-out: inhibition of IL-1β-plus-dexamethasone-induced reporter activity): 56% | effect on IL-1β-induced BIRC2 mRNA expression [7]: below 10 μM, TPCA-1 was without effect | EC50 [9]: 2600 nM

IL-1β: Recombinant human IL-1β (R&D Systems), proinflammatory cytokine
EMax (Fold ± SE) ([1]; R8 reporter, IL-1β + Budesonide (300 nM)): 9.3 Fold | EMax (Fold ± SE) ([1]; R8 reporter, IL-1β + dexamethasone (1 μM), 6 h): 16.5 ± 1.0 Fold | reporter activity, fold ([1]; R8 reporter, IL-1β alone (Fig. 3I)): 1.2 ± 0.3 fold | EMax (Fold ± SE) [1, 20]: n.r. | pEC50 (−log[g/ mL] ± SE) [1, 20]: n.r. | EMax (Fold ± SE) [1, 21]: n.r. | pEC50 (-log[g/ml] ±SE) [1, 21]: n.r. | reporter activity, fold of no stimulation ± SD ([1]; R8 reporter, dexamethasone 1 μM, IL-1β 1 ng/mL or both, 6 h (Fig. 3C)): 1.3 ± 0.7 fold | recruitment of RELA to CXCL8, fold [10]: 48 ± 11 fold | reporter activity, fold of no stimulation ± SD [11]: 1.6 ± 0.5 fold | EMax (Fold ± SE) ([3]; R2 reporter, IL-1β + dexamethasone (1 μM), 6 h): 3.8 ± 0.2 Fold | reporter activity, fold ([3]; R2 reporter, IL-1β at 1 ng/mL in the presence of dexamethasone (1 μM) (Fig. 3F)): 4.0 ± 1.1 fold | EMax (Fold ± SE) ([3]; R2 reporter, IL-1β concentration-response, naïve, n.r. = no significant response): n.r. | pEC50 (−log[g/ mL] ± SE) ([3]; R2 reporter, IL-1β, naïve, n.r. = no significant response): n.r. | reporter activity, fold of no stimulation ± SD [12]: 1.4 ± 0.3 fold | reporter inducibility, fold ([13]; IL-1β 1 ng/mL (Fig. 6A)): 2.3 fold | reporter inducibility, fold ([13]; IL-1β 1 ng/mL, 6 h (Fig. 5C)): 2.0 ± 0.9 fold | reporter activity, fold of no stimulation ± SD ([13]; dexamethasone 1 μM, IL-1β 1 ng/mL or both, 6 h (Fig. 3C)): 2.0 ± 0.7 fold and 2.0 fold | EMax (% of 1 μM dexamethasone ± SE) ([4]; R5 reporter, IL-1β + dexamethasone (1 μM): inhibition of dexamethasone-induced activity, % of 1 μM dexamethasone): 15.1% ± 3.1 | EMax [4, 22]: n.r. | pEC50 (−log[g/ mL] ± SE) [4, 22]: n.r. | EMax (Fold ± SE) ([9]; R4 reporter, IL-1β + Budesonide (300 nM)): 4.8 Fold | EMax (Fold ± SE) ([9]; R4 reporter, IL-1β + dexamethasone (1 μM), 6 h): 4.3 ± 0.1 Fold | EMax (Fold ± SE) ([9]; R4 reporter, IL-1β, naïve, 6 h (Table 1)): 3.5 ± 0.1 Fold | EMax (Fold ± SE) ([9]; R4 reporter, IL-1β, naïve, budesonide series (Supplemental Table 1)): 3.6 Fold | reporter activity, fold of no stimulation ± SD ([9]; R4 reporter, dexamethasone 1 μM, IL-1β 1 ng/mL or both, 6 h (Fig. 3C)): 3.3 ± 1.9 fold | reporter activity, fold of not stimulated ([9]; R4 reporter, naïve cells, dexamethasone 1 μM, IL-1β 1 ng/mL or both, 6 h (Fig. 5C)): 2.8 ± 0.7 fold
